{
  "source": "paper PMC9067539",
  "about": "(Bioorganic & medicinal chemistry letters, 2022)",
  "key": {"[1]": {"test": "Exposure after intranasal compared to oral route", "type": "in vivo", "conditions": "brain and peripheral blood; data not shown"}, "[2]": {"test_system": "MOG35–55-induced murine model of chronic progressive Experimental Autoimmune Encephalomyelitis (EAE)", "test": "EAE therapeutic model, disease scores", "type": "in vivo"}, "[3]": {"conditions": "mice; cited from earlier work"}, "[4]": {"conditions": "cited from earlier work"}, "[5]": {"target": "T1, DYRK1A (Rattus norvegicus, UniProt Q63470)", "test": "DYRK1A ELISA kinase assay", "type": "biochemical", "conditions": "for times less potent against DYRK1A compared to the di-hydroxy derivatives: A-ring hydroxyl removal, vs GCG"}, "[6]": {"test": "Stability in biological media", "type": "in vitro ADME", "conditions": "biological media (plasma and hepatocytes media)"}, "[7]": {"target": "T1, DYRK1A", "test": "DYRK1A ELISA assay with varying concentrations of ATP", "type": "biochemical", "conditions": "[ATP] up to 0.8 mM"}, "[8]": {"test_system": "spinal cord inflammation, demyelination, and axonal neurodegeneration", "test": "Histopathological analysis of spinal cord sections of EAE mice", "type": "in vivo", "conditions": "intranasal vs oral, 15 mg/kg BID"}},
  "note": "Read-outs that look alike come from different tables or passages of the source.",
  "data": [
    {"smiles": "O=C(O[C@@H]1Cc2c(O)cc(O)cc2O[C@H]1c1ccc(O)c(O)c1)c1cc(O)c(O)c(O)c1", "note": "[CG, catechin gallate]", "values": [
      {"measurement": "exposure increase with intranasal compared to the oral route", "setting": "[1]", "value": 50, "unit": "fold"}
    ]},
    {"smiles": "O=C(O[C@@H]1Cc2c(O)cc(O)cc2O[C@@H]1c1cc(O)c(O)c(O)c1)c1cc(O)c(O)c(O)c1", "note": "[EGCG, Epigallocatechin gallate]", "values": [
      {"measurement": "EAE disease scores", "setting": "[2]; oral (PO), 15 mg/kg BID", "value": "did not see any significant activity"},
      {"measurement": "oral bioavailability (F)", "setting": "[3]", "value": "up to 12%"},
      {"measurement": "oral bioavailability (F)", "setting": "[4]; rats", "value": "up to 5%"}
    ]},
    {"smiles": "O=C(O[C@@H]1Cc2c(O)cc(O)cc2O[C@H]1c1ccc(O)c(O)c1)c1cc(O)c(O)c(O)c1F", "note": "(racemic) [1r]", "values": [
      {"measurement": "fold more potent than catechin gallate (CG)", "setting": "[5]", "value": "about 3 fold"},
      {"measurement": "stability in biological media", "setting": "[6]", "value": "improved stability in biological media"}
    ]},
    {"smiles": "COc1cc(C(=O)O[C@@H]2Cc3c(O)cc(O)cc3O[C@@H]2c2cc(O)c(O)c(O)c2)cc(O)c1O", "note": "[EGCG-3”OMe]", "values": [
      {"measurement": "fold improved oral bioavailability than EGCG", "setting": "[4]", "value": "about 6 fold"}
    ]},
    {"smiles": "CCCCCCCCc1ccc(CCC(N)(CO)CO)cc1", "note": "[FTY720, Fingolimod, reference compound]", "values": [
      {"measurement": "EAE disease scores", "setting": "[2]; 1 mg/kg QD", "value": "reversal of the disease scores"}
    ]},
    {"smiles": "O=C(O[C@@H]1Cc2c(O)cc(O)cc2O[C@H]1c1cc(O)c(O)c(O)c1F)c1cc(O)c(O)c(O)c1", "note": "[1n]", "values": [
      {"measurement": "stability in biological media", "setting": "[6]", "value": "did not translate into a stability improvement in biological media"}
    ]},
    {"smiles": "O=C(OC1Cc2c(O)cccc2OC1c1cc(O)c(O)c(O)c1)c1cc(O)c(O)c(O)c1", "note": "(centres unmarked) [1b]", "values": [
      {"measurement": "times less potent against DYRK1A compared to the di-hydroxy derivatives", "setting": "[5]", "value": "~2", "unit": "times"}
    ]},
    {"smiles": "O=C(OC1Cc2ccccc2CC1c1cc(O)c(O)c(O)c1)c1cc(O)c(O)c(O)c1", "note": "(centres unmarked) [1c]", "values": [
      {"measurement": "stability in biological media", "setting": "[6]", "value": "does not improve stability in biological media"}
    ]},
    {"smiles": "Oc1cc(O)c2c(c1)O[C@H](c1cc(O)c(O)c(O)c1)[C@H](O)C2", "note": "[EGC, EpiGalloCatechin, reference compound]", "values": [
      {"measurement": "IC50", "setting": "[5]", "value": "> 100000", "unit": "nM"}
    ]},
    {"smiles": "O=C(O[C@@H]1Cc2c(O)cc(O)cc2O[C@H]1c1cc(O)c(O)c(O)c1)c1cc(O)c(O)c(O)c1", "note": "[(−)GCG, reference compound]", "values": [
      {"measurement": "effect of [ATP] on inhibitory potency", "setting": "[7]", "value": "only marginally affected"}
    ]},
    {"smiles": "O=C(O[C@@H]1Cc2c(O)cc(O)cc2O[C@H]1c1cc(O)c(O)c(O)c1)c1cc(O)c(O)c(O)c1F", "note": "[1f]", "values": [
      {"measurement": "fold improvement in activity against DYRK1A compared to GCG", "setting": "[5]", "value": "about 3 fold"},
      {"measurement": "effect of [ATP] on inhibitory potency", "setting": "[7]", "value": "only marginally affected"},
      {"measurement": "EAE disease scores", "setting": "[2]; intranasal, 15 mg/kg twice daily", "value": "reversal of the disease scores similar to that observed with FTY720"},
      {"measurement": "EAE disease scores", "setting": "[2]; oral (PO), 15 mg/kg BID", "value": "no significant amelioratory effect until the last two days of the study"},
      {"measurement": "spinal cord lesion severity, intranasal versus oral administration", "setting": "[8]", "value": "more effective at reducing lesion severity than oral administration"}
    ]},
    {"smiles": "O=C(O[C@H]1Cc2ccccc2O[C@@H]1c1cc(O)c(O)c(O)c1)c1cc(O)c(O)c(O)c1", "note": "(racemic) [1a]", "values": [
      {"measurement": "times less potent against DYRK1A compared to the di-hydroxy derivatives", "setting": "[5]", "value": "about 4 times"},
      {"measurement": "IC50", "setting": "[5]; read-out: DYRK1A IC50, ELISA assay", "value": 422, "unit": "nM"}
    ]}
  ]
}
